These results are taken from patent US20220073613A1, “ACTIVATABLE MASKED ANTI-CTLA4 BINDING PROTEINS” (Xilio Development, Inc., priority 2018, published 2022).

One experiment concerns MC38 conditioned media. In words: AMSP-MS kinetic analysis of AK10 peptides, MC38. It counts as biochemical, mouse. The following applies: MC38 serum-free conditioned media. On the procedure:
(§1) Ten sequences (AK10) shown in Table 19 were analyzed via AMSP-MS. These sequences were slightly modified from the original sequences to generate mass spectrometry-compatible peptides (in some cases adding basic residues to add positive charge) and spacing residues (GG) to produce longer ˜14-mer peptides. The peptides were prepared at a 500 nM final concentration in the AMSP-MS reaction. The AK10 library was also separately analyzed by LC-MS/MS for chemical validation of the peptide species. The AMSP-MS analysis was performed under standard substrate specificity profiling conditions, sampling time points during the reaction incubation at 0, 15, 60, 240 and 1200 min. Peptides were quantified by mass spectrometric label-free quantitation from the MS1 precursor ion peak areas for each peptide species. Enzyme progress curves were modeled in GraphPad Prism software v 8.0 and data were fitted using non-linear least squares fitting to the first order kinetic equation: where Y=percent product formation, Kobs is the observed rate, and t=time. In Michaelis-Menten kinetics, the observed rate Kobs is a function of the enzyme concentration and catalytic efficiency (kcat/KM). In this analysis of an enzyme mixture, Kobs was used to rank product cleavages.

Another experiment relates to NAT conditioned media. The experiment is described as follows: AMSP-MS kinetic analysis of AK10 peptides, NAT. It counts as biochemical, human. The procedure:
as §1

A further experiment concerns tumor conditioned media. In words: AMSP-MS kinetic analysis of AK10 peptides, patient tumor. It counts as biochemical, human. The procedure: as §1
A further experiment deals with MB49 tumors. In words: MB49 murine bladder tumor model, efficacy and pharmacodynamics. Also noted: species or system C57/BL6-huCTLA4 mice. To be noted: mouse, in vivo. On the procedure: Efficacy and pharmacodynamics (PD) of anti-CTLA4 antibodies were assessed using the MB49 murine bladder tumor model. Efficacy was assessed by administering each test antibody (RSV-m control antibody, ipilimumab, Antibody 2-6, Antibody 2-14, and Antibody 2-15) and then assessing tumor volume and body weight. The anti-RSV control antibody contains S239D and I332E mutations (RSV-m control antibody). Peripheral immunophenotyping was also carried out on day 5, which assessed the percentage of CD4+Ki67+ cells and the percentage of CD4+ICOS+ cells in the peripheral blood on day 5 following administration. As used herein, dosing in mg/kg is also referred to as “mpk.” MB49 cells were inoculated subcutaneously into C57/BL6-huCTLA4 mice. Treatment started when the tumors reached approximately 350 mm^3. […]
Pharmacodynamics is assessed by administering antibody to each of five cohorts of mice, with dosing (mg/kg) as shown in Table 16. Immunophenotyping among other readouts are performed in the tumor, liver, spleen, and blood. T cells are assessed by measuring Foxp3+CD25+ cells as a percentage of CD4+ cells, and CD8+ cells are measured as a percentage of CD45+ cells. Cleavage and drug levels in tumors, liver, kidney, spleen, and plasma is also assessed.

Another experiment concerns 9D9 antibody. In words: Surface Plasmon Resonance of masking peptide binding to 9D9 antibody. The following applies: SPR, reference channel. On the procedure:
FIGS. 1A and 1B is a series of graphs showing in vitro analyses of anti-CTLA4 antibody occlusion by a masking peptide. Surface plasmon resonance (SPR) was performed to examine A) kinetics and B) affinity between 9D9 antibody (ligand) and masking peptide […] (analyte). Analytes were run in increasing concentrations of 2-fold serial dilutions from 0.1 to 50 μM at 37° C. Reference-subtracted response was plotted. SPR was performed three times and representative traces from one experiment are shown.
Surface Plasmon Resonance was performed on a GE Biacore T200 instrument at 37° C. The 9D9 antibody and isotype control (reference channel) were coupled at 100 RU immobilization level to CM5 chip (GE Healthcare). Peptides were synthesized and diluted into HBS-EP+ running buffer (GE Healthcare). The binding data were analyzed using Biacore Evaluation Software, version 3.0.

“Also recorded” adds a separate entry of the source.

For the substance LSGRSNAMPYDLYHP [AK-09], the “ranking as substrate (relative efficiency)” value with MC38 conditioned media is “best substrates”; in the experiment with NAT conditioned media, “better performing substrates”. On the same counts, the results for MPYDLYHPRQARVVG [AK-10] are “best substrates” and “better performing substrates; also recorded: most efficient NAT substrate”. RGGVPLSLYSGGGK [AK-03]: in the experiment on tumor conditioned media, the “ranking as substrate (relative efficiency)” value is recorded as “top cleavages”. Turning to ipilimumab [reference compound], the “Regulatory T cell depletion and CD8+ T cell activation in the tumor microenvironment” value in the experiment on MB49 tumors is recorded as “not”.

In the case of RGGDSGGFMLTGGK [AK-05], the “ranking as substrate (relative efficiency)” value with NAT conditioned media was “weaker substrates”.

Turning to RGGMPYDLYHPGGK [AK-04], the “ranking as substrate (relative efficiency)” value is recorded as “better performing substrates” in the experiment with NAT conditioned media and “top cleavages” in the experiment on tumor conditioned media.

With CNLIVEGHC, the “binding to isotype control antibody” value with 9D9 antibody is listed as “did not bind”.
